biological target: Cezanne 1 (Homo sapiens (Human), UniProt Q6GQQ9); test: Cezanne 1 biochemical IC50 assay (fluorescence polarisation, TAMRA labelled peptide linked to ubiquitin); conditions: Cezanne 1 biochemical IC50 assay; 30 min pre-incubation, read after 2 hr at room temperature; read-out: IC50 range
Procedure, shortened: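 FLAG-tagged Cezanne 1, expressed in HEK293T and FLAG-purified, was preincubated with compound for 30 min at room temperature in Tris pH 7.5 buffer with Tween 20, BSA and β-mercaptoethanol. Reactions were started with 50 nM TAMRA-peptide isopeptide-linked to ubiquitin. Fluorescence polarisation (ex 540/em 590 nm) was read immediately and after 2 h.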

Chain of Cezanne 1 (Q6GQQ9 whole entry): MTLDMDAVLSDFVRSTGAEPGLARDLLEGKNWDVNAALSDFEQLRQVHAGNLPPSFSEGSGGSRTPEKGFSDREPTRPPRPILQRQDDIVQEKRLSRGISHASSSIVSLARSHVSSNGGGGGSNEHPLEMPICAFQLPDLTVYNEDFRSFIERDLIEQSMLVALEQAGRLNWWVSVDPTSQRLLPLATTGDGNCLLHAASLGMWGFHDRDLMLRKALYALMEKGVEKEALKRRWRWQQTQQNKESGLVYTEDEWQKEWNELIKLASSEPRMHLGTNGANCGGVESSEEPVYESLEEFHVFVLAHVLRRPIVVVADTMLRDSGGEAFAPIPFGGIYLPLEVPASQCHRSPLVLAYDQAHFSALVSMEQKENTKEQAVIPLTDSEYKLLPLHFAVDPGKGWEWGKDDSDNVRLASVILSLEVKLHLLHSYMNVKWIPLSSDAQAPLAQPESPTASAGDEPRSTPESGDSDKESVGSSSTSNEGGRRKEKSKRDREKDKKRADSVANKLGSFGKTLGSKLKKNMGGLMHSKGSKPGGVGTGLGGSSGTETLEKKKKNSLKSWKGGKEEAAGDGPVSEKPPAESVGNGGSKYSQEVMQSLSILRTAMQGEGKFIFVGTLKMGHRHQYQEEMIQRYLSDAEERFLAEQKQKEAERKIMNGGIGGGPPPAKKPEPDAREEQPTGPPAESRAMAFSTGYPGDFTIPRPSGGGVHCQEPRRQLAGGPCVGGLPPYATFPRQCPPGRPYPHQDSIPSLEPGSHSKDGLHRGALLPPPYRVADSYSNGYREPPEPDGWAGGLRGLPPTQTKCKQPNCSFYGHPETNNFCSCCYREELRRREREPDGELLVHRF

Row | Structure (SMILES) | IC50 [µM]
1 | N#CN1CCC2(Cc3cc(-c4cccc(N5CCCCC5)c4)ccc3NC2=O)C1 (centres unmarked) [Example 118, 2′-Oxo-6′-(3-(piperidin-1-yl)phenyl)-1′,4′-dihydro-2′H-spiro[pyrrolidine-3,3′-quinoline]-1-carbonitrile] | 0.1 to 1
2 | CN1CCN(c2ccc(-c3ccc4c(c3)CC3(CCN(C#N)C3)C(=O)N4)cc2)CC1 (centres unmarked) [Example 126, 6′-(4-(4-Methylpiperazin-1-yl)phenyl)-2′-oxo-1′,4′-dihydro-2′H-spiro[pyrrolidine-3,3′-quinoline]-1-carbonitrile] | 0.1 to 1
3 | N#CN1CCC2(C1)Oc1ncc(-c3cccc4[nH]ncc34)cc1NC2=O (centres unmarked) [Example 135, 7-(1H-Indazol-4-yl)-2-oxo-1,2-dihydrospiro[pyrido[2,3-b][1,4]oxazine-3,3′-pyrrolidine]-1′-carbonitrile] | < 0.1
4 | Cn1ncc2c(-c3cnc4c(c3)NC(=O)C3(CCN(C#N)C3)O4)cccc21 (centres unmarked) [Example 136, 7-(1-Methyl-1H-indazol-4-yl)-2-oxo-1,2-dihydrospiro[pyrido[2,3-b][1,4]oxazine-3,3′-pyrrolidine]-1′-carbonitrile] | < 0.1
5 | N#CN1CCC2(C1)Oc1ncc(-c3cccc4c3cnn4CCO)cc1NC2=O (centres unmarked) [Example 137, 7-(1-(2-Hydroxyethyl)-1H-indazol-4-yl)-2-oxo-1,2-dihydrospiro[pyrido[2,3-b][1,4]oxazine-3,3′-pyrrolidine]-1′-carbonitrile] | < 0.1
6 | COc1ccc(-c2cnc3c(c2)NC(=O)C2(CCN(C#N)C2)O3)c(C)n1 (centres unmarked) [Example 138, 7-(6-Methoxy-2-methylpyridin-3-yl)-2-oxo-1,2-dihydrospiro[pyrido[2,3-b][1,4]oxazine-3,3′-pyrrolidine]-1′-carbonitrile] | 0.1 to 1
7 | N#CN1CCC2(C1)Oc1nc(-c3cccc4[nH]ncc34)ccc1NC2=O (centres unmarked) [Example 139, 6-(1H-Indazol-4-yl)-2-oxo-1,2-dihydrospiro[pyrido[2,3-b][1,4]oxazine-3,3′-pyrrolidine]-1′-carbonitrile] | 0.1 to 1
8 | COCCn1ncc2c(-c3cnc4c(c3)NC(=O)C3(CCN(C#N)C3)O4)cccc21 (centres unmarked) [Example 140, 7-(1-(2-Methoxyethyl)-1H-indazol-4-yl)-2-oxo-1,2-dihydrospiro[pyrido[2,3-b][1,4]oxazine-3,3′-pyrrolidine]-1′-carbonitrile] | 0.1 to 1
9 | N#CN1CCC2(C1)Oc1nc(C(=O)Nc3ccc(F)cc3)ccc1NC2=O (centres unmarked) [Example 141, 1′-Cyano-N-(4-fluorophenyl)-2-oxo-1,2-dihydrospiro[pyrido[2,3-b][1,4]oxazine-3,3′-pyrrolidine]-6-carboxamide] | 1 to 10
10 | N#CN1CCC2(C1)Oc1nc(C(=O)Nc3ccccc3)ccc1NC2=O (centres unmarked) [Example 143, 1′-Cyano-2-oxo-N-phenyl-1,2-dihydrospiro[pyrido[2,3-b][1,4]oxazine-3,3′-pyrrolidine]-6-carboxamide] | 0.1 to 1
11 | N#CN1CCC2(C1)Oc1nc(C(=O)Nc3ccccc3F)ccc1NC2=O (centres unmarked) [Example 144, 1′-Cyano-N-(2-fluorophenyl)-2-oxo-1,2-dihydrospiro[pyrido[2,3-b][1,4]oxazine-3,3′-pyrrolidine]-6-carboxamide] | 0.1 to 1
12 | Cc1cnn(C)c1-c1cnc2c(c1)NC(=O)C1(CCN(C#N)C1)N2 (centres unmarked) [Example 146, 7-(1,4-Dimethyl-1H-pyrazol-5-yl)-2-oxo-1,4-dihydro-2H-spiro[pyrido[2,3-b]pyrazine-3,3′-pyrrolidine]-1′-carbonitrile] | 0.1 to 1
13 | N#CN1CCC2(C1)Nc1nc(-c3ccccc3)ccc1NC2=O (centres unmarked) [Example 147, 2-Oxo-6-phenyl-1,4-dihydro-2H-spiro[pyrido[2,3-b]pyrazine-3,3′-pyrrolidine]-1′-carbonitrile] | 1 to 10

More lines, now with the values ahead:

Row | IC50 [µM] | Structure (SMILES)
14 | 0.1 to 1 | CC(=O)Nc1cccc(-c2ccc3c(c2)CC2(CCN(C#N)C2)C(=O)N3)c1 (centres unmarked) [Example 112, N-(3-(1-Cyano-2′-oxo-1′,4′-dihydro-2′H-spiro[pyrrolidine-3,3′-quinolin]-6′-yl)phenyl)acetamide]
15 | 0.1 to 1 | CC(=O)Nc1ccc(-c2ccc3c(c2)CC2(CCN(C#N)C2)C(=O)N3)cc1 (centres unmarked) [Example 113, N-(4-(1-Cyano-2′-oxo-1′,4′-dihydro-2′H-spiro[pyrrolidine-3,3′-quinolin]-6′-yl)phenyl)acetamide]
16 | 0.1 to 1 | N#CN1CCC2(Cc3cc(-c4ccc(S(=O)(=O)N5CCOCC5)cc4)ccc3NC2=O)C1 (centres unmarked) [Example 116, 6′-(4-(Morpholinosulfonyl)phenyl)-2′-oxo-1′,4′-dihydro-2′H-spiro[pyrrolidine-3,3′-quinoline]-1-carbonitrile]
17 | 0.1 to 1 | CC(=O)Nc1ccccc1-c1ccc2c(c1)CC1(CCN(C#N)C1)C(=O)N2 (centres unmarked) [Example 119, N-(2-(1-Cyano-2′-oxo-1′,4′-dihydro-2′H-spiro[pyrrolidine-3,3′-quinolin]-6′-yl)phenyl)acetamide]
18 | 0.1 to 1 | N#CN1CCC2(Cc3cc(-c4ccc(C(=O)N5CCOCC5)cc4)ccc3NC2=O)C1 (centres unmarked) [Example 120, 6′-(4-(Morpholine-4-carbonyl)phenyl)-2′-oxo-1′,4′-dihydro-2′H-spiro[pyrrolidine-3,3′-quinoline]-1-carbonitrile]
19 | 0.1 to 1 | N#CN1CCC2(Cc3cc(-c4cccc(S(=O)(=O)N5CCOCC5)c4)ccc3NC2=O)C1 (centres unmarked) [Example 121, 6′-(3-(Morpholinosulfonyl)phenyl)-2′-oxo-1′,4′-dihydro-2′H-spiro[pyrrolidine-3,3′-quinoline]-1-carbonitrile]
20 | 1 to 10 | Cn1cc(-c2ccc3c(c2)CC2(CCN(C#N)C2)C(=O)N3)ccc1=O (centres unmarked) [Example 122, 6′-(1-Methyl-6-oxo-1,6-dihydropyridin-3-yl)-2′-oxo-1′,4′-dihydro-2′H-spiro[pyrrolidine-3,3′-quinoline]-1-carbonitrile]
21 | 0.1 to 1 | Cc1nc2cc(-c3ccc4c(c3)CC3(CCN(C#N)C3)C(=O)N4)ccc2s1 (centres unmarked) [Example 123, 6′-(2-Methylbenzo[d]thiazol-5-yl)-2′-oxo-1′,4′-dihydro-2′H-spiro[pyrrolidine-3,3′-quinoline]-1-carbonitrile]
22 | 0.1 to 1 | Cc1noc(C)c1-c1ccc2c(c1)CC1(CCN(C#N)C1)C(=O)N2 (centres unmarked) [Example 124, 6′-(3,5-Dimethylisoxazol-4-yl)-2′-oxo-1′,4′-dihydro-2′H-spiro[pyrrolidine-3,3′-quinoline]-1-carbonitrile]
23 | 0.1 to 1 | N#CN1CCC2(Cc3cc(-c4cc(OC(F)(F)F)ccc4Cl)ccc3NC2=O)C1 (centres unmarked) [Example 125, 6′-(2-Chloro-5-(trifluoromethoxy)phenyl)-2′-oxo-1′,4′-dihydro-2′H-spiro[pyrrolidine-3,3′-quinoline]-1-carbonitrile]
24 | 0.1 to 1 | N#CN1CCC2(Cc3cc(-c4ccc(C(=O)NCc5ccccc5)cc4)ccc3NC2=O)C1 (centres unmarked) [Example 127, N-Benzyl-4-(1-cyano-2′-oxo-1′,4′-dihydro-2′H-spiro[pyrrolidine-3,3′-quinolin]-6′-yl)benzamide]
25 | 0.1 to 1 | Cc1n[nH]cc1-c1ccc2c(c1)CC1(CCN(C#N)C1)C(=O)N2 (centres unmarked) [Example 128, 6′-(3-Methyl-1H-pyrazol-4-yl)-2′-oxo-1′,4′-dihydro-2′H-spiro[pyrrolidine-3,3′-quinoline]-1-carbonitrile]
26 | 0.1 to 1 | N#CN1CCC2(Cc3cc(-c4ccc(CN5CCOCC5)cc4)ccc3NC2=O)C1 (centres unmarked) [Example 129, 6′-(4-(Morpholinomethyl)phenyl)-2′-oxo-1′,4′-dihydro-2′H-spiro[pyrrolidine-3,3′-quinoline]-1-carbonitrile]
27 | 0.1 to 1 | CN(C)C(=O)c1cccc(-c2ccc3c(c2)CC2(CCN(C#N)C2)C(=O)N3)c1 (centres unmarked) [Example 130, 3-(1-Cyano-2′-oxo-1′,4′-dihydro-2′H-spiro[pyrrolidine-3,3′-quinolin]-6′-yl)-N,N-dimethylbenzamide]
28 | 0.1 to 1 | Cc1cc(-c2ccc3c(c2)CC2(CCN(C#N)C2)C(=O)N3)ccn1 (centres unmarked) [Example 131, 6′-(2-Methylpyridin-4-yl)-2′-oxo-1′,4′-dihydro-2′H-spiro[pyrrolidine-3,3′-quinoline]-1-carbonitrile]
29 | 0.1 to 1 | Cc1ccc2[nH]ncc2c1-c1ccc2c(c1)NC(=O)[C@@]1(CCN(C#N)C1)C2 [Example 132, (R)-7′-(5-Methyl-H-indazol-4-yl)-2′-oxo-1′,4′-dihydro-2′H-spiro[pyrrolidine-3,3′-quinoline]-1-carbonitrile]
30 | 0.1 to 1 | N#CN1CCC2(Cc3ccc(-c4cccc5[nH]ncc45)cc3NC2=O)C1 (centres unmarked) [Example 133, 7′-(1H-Indazol-4-yl)-2′-oxo-1′,4′-dihydro-2′H-spiro[pyrrolidine-3,3′-quinoline]-1-carbonitrile]
31 | 0.1 to 1 | N#CN1CCC2(Cc3cc(-c4cccc5[nH]ncc45)ccc3NC2=O)C1 (centres unmarked) [Example 134, 6′-(1H-Indazol-4-yl)-2′-oxo-1′,4′-dihydro-2′H-spiro[pyrrolidine-3,3′-quinoline]-1-carbonitrile]
32 | 1 to 10 | N#CN1CCC2(C1)Oc1nc(C(=O)N3CCCCC3)ccc1NC2=O (centres unmarked) [Example 142, 2-Oxo-6-(piperidine-1-carbonyl)-1,2-dihydrospiro[pyrido[2,3-b][1,4]oxazine-3,3′-pyrrolidine]-1′-carbonitrile]
